Measured values reported in patent US20090275583A1, “ANTIVIRAL COMPOUNDS AND USE THEREOF” (Myriad Genetics, Incorporated, priority 2006, published 2009).
pEC50, pIC50: −log10 of the molar value.

Key:
[1] = tested on: HIV-1 laboratory strain, NL4-3; test: MT-4 cytoprotection assay; assay type: cell-based; settings: Human immunodeficiency virus 1, NL43, MT4, 96 h; MT-4 cells, four days incubation, WST-1 readout; read-out: MT4 EC50
Method in brief: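 MT-4 cells mock- or batch-infected with NL4-3 (MOI 0.0005) for 2 h, washed, then cultured 4 days with increasing compound concentrations. Viability read by WST-1 tetrazolium reduction: cytoprotection in infected cells, toxicity in mock-infected cells.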

HIV-1NL4-3 = test: P4-MAGI assay; assay type: cell-based; settings: Human immunodeficiency virus 1, 24 h, P4 cells, 24 hour incubation, β-galactosidase expression; read-out: P4-MAGI IC50
Method in brief: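 Cytotoxicity (TC50, 50% growth inhibition) came from WST-1 in uninfected cells. For antiviral activity, compound at rising concentrations was added immediately after HIV-1NL4-3 inoculation (MOI 1, DEAE-Dextran) of P4 cells, CD4+ HeLa cells expressing β-galactosidase from a minimal HIV-1 LTR upon infection.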

SMILES | pEC50 [1] | pIC50 (HIV-1NL4-3)
C=C(C)[C@@H]1CC[C@]2(C(=O)NCCc3cccc(-c4nnc(-c5ccc(C(=O)O)cn5)[nH]4)c3)CC[C@]3(C)C(CCC4[C@@]5(C)CC[C@H](O)C(C)(C)C5CC[C@]43C)C12 (stereo partly drawn) [Example 254] | 6.45 | 7.16
C=C(C)[C@@H]1CC[C@]2(C(=O)NCCc3cccc(C(=O)NCC(O)CO)c3)CC[C@]3(C)C(CCC4[C@@]5(C)CC[C@H](O)C(C)(C)C5CC[C@]43C)C12 (stereo partly drawn) [Example 256] | 6.69 | 7.30
C=C(C)[C@@H]1CC[C@]2(C(=O)NCCc3cccc(C(=O)NCC4COC(C(=O)O)CO4)c3)CC[C@]3(C)C(CCC4[C@@]5(C)CC[C@H](O)C(C)(C)C5CC[C@]43C)C12 (stereo partly drawn) [Example 257] | 6.48 | 7.27
C=C(C)[C@@H]1CC[C@]2(C(=O)NCCc3cccc(C(=O)NCC4COCC(C(=O)O)O4)c3)CC[C@]3(C)C(CCC4[C@@]5(C)CC[C@H](O)C(C)(C)C5CC[C@]43C)C12 (stereo partly drawn) [Example 258] | 6.01 | 6.95
C=C(C)[C@@H]1CC[C@]2(C(=O)NCCc3ccc(F)c(C(=O)NCc4ccc(C(=O)OC)cn4)c3)CC[C@]3(C)C(CCC4[C@@]5(C)CC[C@H](O)C(C)(C)C5CC[C@]43C)C12 (stereo partly drawn) [Example 261] | 8.05 | 7.84
C=C(C)[C@@H]1CC[C@]2(C(=O)NCCc3ccc(F)c(C(=O)NCc4ccc(C(=O)O)cn4)c3)CC[C@]3(C)C(CCC4[C@@]5(C)CC[C@H](O)C(C)(C)C5CC[C@]43C)C12 (stereo partly drawn) [Example 262] | 8.14 | 7.94
CC(=O)[C@@H]1CC[C@]2(C(=O)NCCc3cccc(C(=O)NCc4ccc(C(=O)O)cc4)c3)CC[C@]3(C)C(CCC4[C@@]5(C)CC[C@H](O)C(C)(C)C5CC[C@]43C)C12 (stereo partly drawn) [Example 264] | 6.79 | 7.53
C=C(CN1CCCC1)[C@@H]1CC[C@]2(C(=O)NCCc3cccc(C(=O)NCc4ccc(C(=O)O)cn4)c3)CC[C@]3(C)C(CCC4[C@@]5(C)CC[C@H](O)C(C)(C)C5CC[C@]43C)C12 (stereo partly drawn) [Example 265] | 6.76 | 7.24
C=C(COC)[C@@H]1CC[C@]2(C(=O)NCCc3cccc(C(=O)NCc4ccc(C(=O)O)cn4)c3)CC[C@]3(C)C(CCC4[C@@]5(C)CC[C@H](O)C(C)(C)C5CC[C@]43C)C12 (stereo partly drawn) [Example 266] | 7.62 | 8.08
C=C(CSCCO)[C@@H]1CC[C@]2(C(=O)NCCc3cccc(C(=O)NCc4ccc(C(=O)O)cn4)c3)CC[C@]3(C)C(CCC4[C@@]5(C)CC[C@H](O)C(C)(C)C5CC[C@]43C)C12 (stereo partly drawn) [Example 267] | 7.34 | 7.76
C=C(CSCCC(=O)O)[C@@H]1CC[C@]2(C(=O)NCCc3cccc(C(=O)NCc4ccc(C(=O)O)cc4)c3)CC[C@]3(C)C(CCC4[C@@]5(C)CC[C@H](O)C(C)(C)C5CC[C@]43C)C12 (stereo partly drawn) [Example 268] | 6.39 | 6.98
C/C(=C/C#N)[C@@H]1CC[C@]2(C(=O)NCCc3cccc(C(=O)NCc4ccc(C(=O)O)cn4)c3)CC[C@]3(C)C(CCC4[C@@]5(C)CC[C@H](O)C(C)(C)C5CC[C@]43C)C12 (stereo partly drawn) [Example 269] | 7.41 | 7.94
CC(O)(CN1CCCC1)[C@@H]1CC[C@]2(C(=O)NCCc3cccc(C(=O)NCc4ccc(C(=O)O)cn4)c3)CC[C@]3(C)C(CCC4[C@@]5(C)CC[C@H](O)C(C)(C)C5CC[C@]43C)C12 (stereo partly drawn) [Example 270] | 6.36 | 7.00
CC1(C)C2CC[C@]3(C)C(CCC4C5[C@H]([C@@](C)(O)CO)CC[C@]5(C(=O)NCCc5cccc(C(=O)NCc6ccc(C(=O)O)cn6)c5)CC[C@]43C)[C@@]2(C)CC[C@@H]1O (stereo partly drawn) [Example 271] | 5.74 | 6.93
C=C(C)[C@@H]1CC[C@]2(C(=O)NCCc3cccc(C(=O)NCc4ccc(C(=O)NCCc5cnc[nH]5)cn4)c3)CC[C@]3(C)C(CCC4[C@@]5(C)CC[C@H](O)C(C)(C)C5CC[C@]43C)C12 (stereo partly drawn) [Example 272] | 7.91 | 8.51
C=C(C)[C@@H]1CC[C@]2(C(=O)NCCc3ccc(C)c(C(=O)NCc4ccc(C(=O)O)cn4)c3)CC[C@]3(C)C(CCC4[C@@]5(C)CC[C@H](O)C(C)(C)C5CC[C@]43C)C12 (stereo partly drawn) [Example 273] | 5.73 | 6.90
C=C(C)[C@@H]1CC[C@]2(C(=O)NCCc3ccc(C)c(C(=O)NCc4ccc(C(=O)O)cc4)c3)CC[C@]3(C)C(CCC4[C@@]5(C)CC[C@H](O)C(C)(C)C5CC[C@]43C)C12 (stereo partly drawn) [Example 274] | 5.36 | 7.07
C=C(C)[C@@H]1CC[C@]2(C(=O)NCCc3cccc(C(=O)N[C@@H](C)c4cccc[n+]4[O-])c3)CC[C@]3(C)C(CCC4[C@@]5(C)CC[C@H](O)C(C)(C)C5CC[C@]43C)C12 (stereo partly drawn) [Example 275] | 6.00 | 6.74
